Data on two compounds can be found in patent US5554637A, “Use of leflunomide for inhibiting interleukin 1 alpha” (priority 1993, dated 1996).

Entries after “also recorded” stand apart in the source; their conditions may differ.

One series deals with IL1alpha. Put plainly: IL1alpha synthesis and liberation in lipopolysaccharide-stimulated mononuclear cells from human blood (sandwich enzyme immuno test). The series is classed as cell-based. To be noted: for activity at 10 µM: concentration 0.01 mmol/l; for activity at 100 µM: concentration 0.1 mmol/l; for effect on the IL1alpha level: summary in words of Table 1. As to the method:
The mononuclear cells from freshly isolated human citrate blood were enriched in accordance with known standard procedures (see Tiku et al., J. Immunol. 136/10 (1986) 3677):
10 ml of freshly prepared human citrate blood were carefully underlaid with 15 ml of Lynnphoprep^(R) (Molter GmbH, Heidelberg) and then centrifuged at 400 ×g for 40 min. at 20° C. The cell fraction which was visible as a white ring at the phase boundary was withdrawn with the aid of a syringe, diluted 1:1 (v/v) with PM-16 buffer (from Serva Feinbiochemica GmbH & Co. KG, Heidelberg) and then centrifuged, as above, for 10 min. The supernatant was washed with 10 ml of RPMI 1640 buffer (Gibco, Berlin) to which 300 mg/1 L-glutamine had previously been added. The washed cell fraction was taken up in 1 ml of RPMI 1640 to which 300 mg/1 L-glutamine, 25 mmol/1 HEPES (Gibco, Berlin), […] streptomycin and […] penicillin had previously been added. Using a cell counter (type IT, from Coulter Diagnostics, Krefeld), the cell suspension, which is composed of about 90% lymphocytes and 10% monocytes, was adjusted to about 5 million cells/mi. Cell viability was monitored before and after the inhibition experiments using the known lactate dehydrogenase method. In this case, no change in viability was observed.
The synthesis and liberation of cellular IL1alpha was induced by adding a solution of 500 ng of lipopolysaccharide (Salmonella abortus equi, Sigma GmbH, Deisenhofen) in 0.01 ml of dimethyl sulfoxide/water (1:10, v/v) to 0.48 ml of the above-described cell fraction. At the same time, a solution of leflunomide or leflunomide metabolite in 0.01 ml of dimethylsulfoxide (for the final concentration in each case, see Tab. 1) was added to the cell fraction and the mixture was left at 37° C. for 20 h in a commercially available incubator. After cooling down to 0° C., the samples were centrifuged for 1 min. in a bench centrifuge and in each case 0.025 ml aliquots of the supernatant were examined for their IL1alpha content using a "sandwich" enzyme immuno test kit (from Biermann GmbH, Bad Nauheim) in accordance with the manufacturer's instructions. The control values were determined without the addition of leflunomide or its metabolites and set at 100%. In particular, any possible influence of dimethyl sulfoxide on the IL1alpha level was excluded by appropriate comparative measurements.

Another series concerns cytokines. Put plainly: synthesis and liberation of cytokines from human blood cells. The class given is cell-based. To be noted: in words. As to the method:
The cell fraction which was visible as a white ring at the phase boundary was withdrawn with the aid of a syringe, diluted 1:1 (v/v) with PM-16 buffer (from Serva Feinbiochemica GmbH & Co. KG, Heidelberg) and then centrifuged, as above, for 10 min. […] Using a cell counter (type IT, from Coulter Diagnostics, Krefeld), the cell suspension, which is composed of about 90% lymphocytes and 10% monocytes, was adjusted to about 5 million cells/mi. Cell viability was monitored before and after the inhibition experiments using the known lactate dehydrogenase method.
At the same time, a solution of leflunomide or leflunomide metabolite in 0.01 ml of dimethylsulfoxide (for the final concentration in each case, see Tab. 1) was added to the cell fraction and the mixture was left at 37° C. for 20 h in a commercially available incubator. […] The control values were determined without the addition of leflunomide or its metabolites and set at 100%.

Series [1] in a line: metabolism of leflunomide under the conditions of the cell experiment (HPLC). The series is classed as in vitro ADME, human. To be noted: human, mononuclear cells; mononuclear cell fraction, incubation conditions of Example 1, HPLC.
The test system of the next series is mononuclear cells. The series is described as above. The class given is in vitro ADME, human. To be noted: in words; isolated human mononuclear cells.
The mark [2] stands for this setting: Homo sapiens, control without substance = 100%, LPS 500 ng, 37° C., 20 h, read-out: IL1alpha in the supernatant, % +/- standard deviation.

For orientation: half-life means the time in which the quantity being followed falls by half.

For the compound `C/C(O)=C(\C#N)C(=O)Nc1ccc(C(F)(F)F)cc1` [Leflunomide metabolite, N-(4-trifluoromethylphenyl)-2-cyano-3-hydroxycrotonamide], in the series on IL1alpha (setting [2]), the activity at 10 µM was determined as 100 ± 5% and the activity at 100 µM came out at 98 ± 7%. The “effect on the IL1alpha level” value in the series on IL1alpha is given as “practically no effect on the IL1alpha level”. Further, in the series with cytokines, the “effect on the synthesis and liberation of cytokines from human blood cells” value is on record as “does not exhibit this advantageous effect”.

Take `Cc1oncc1C(=O)Nc1ccc(C(F)(F)F)cc1` [Leflunomide, N-(4-trifluoromethylphenyl)-5-methylisoxazole-4-carboxamide]: the activity at 0.1 µM in the series with IL1alpha (Homo sapiens, concentration 0.0001 mmol/l, control without substance = 100%, LPS 500 ng, 37° C., 20 h, read-out: IL1alpha in the supernatant, % +/- standard deviation) was determined as 83 ± 16%. In the series on IL1alpha (Homo sapiens, concentration 0.005 mmol/l, control without substance = 100%, LPS 500 ng, 37° C., 20 h, read-out: IL1alpha in the supernatant, % +/- standard deviation), the activity at 5 µM came out at 62%. Moreover, in the series on IL1alpha (setting [2]), the activity at 10 µM was 54 ± 5% and the activity at 100 µM amounted to 22 ± 5%. In addition, the activity at 50 µM in the series on IL1alpha (Homo sapiens, concentration 0.05 mmol/l, control without substance = 100%, LPS 500 ng, 37° C., 20 h, read-out: IL1alpha in the supernatant, % +/- standard deviation) was determined as 22 ± 2%. The “effect on the IL1alpha level” value with IL1alpha was “clearly lowered”. Also, the “effect on the synthesis and liberation of cytokines from human blood cells” value in the series on cytokines is on record as “strong inhibitory effect”. This compound also showed a half-life in series [1] of about 10 h. Also, in the series on mononuclear cells, the “metabolism of leflunomide under the experimental conditions” value is given as “did not, to any appreciable extent, metabolize the leflunomide to its metabolites; also recorded: metabolized only very slowly; also recorded: no appreciable metabolism”.
